Values after ≈ are worked out from the molar mass of the structure shown. Where two headings read alike, the source gives them in different places.
Experiments:
Type in all cases: cell-based
SIVmac MA239 = assay: Antiviral assay in infected Molt-4 cells, virus measured by RT activity; details: 120 h, RT activity of supernatant at 5 days postinfection
Experimental: (§1) (1) Molt-4 cells (2×10^6 cells) were infected with HIV-1 NL432 (4×10^6 cpm), HIV-2 Rod (8×10^6 cpm), SIVmac MA239 (8×10^6 cpm) and SIVagm SA212 (8×10^6 cpm), and incubated for 1 hr at room temperature.
(§2) {circle over (3)} Preparation of SIVmac virus: SW480 cells were cultured in DMEM medium supplemented with 10% fetal bovine serum using 25 cm^2 flask. SIVmac MA239 infectious molecular DNA (40 μg), pMA239, transfected to the cells by calcium phosphate coprecipitation method, and the supernatant (2 mL) at 2-3 days post-transfection was infected to CEMX174 cells (1×10^6 cells). The cells were cultured in 10 mL RPMI medium supplemented with 10% fetal bovine serum in CO2 incubator at 37° C. After apparent giant cells were observed, the cells were removed by centrifugation and then the supernatant was filtrated by 0.45 μm filter, measured RT activity, and stored at −80° C. as SIVmac stock virus.
(§3) {circle over (2)} The cells were washed twice to remove the viruses and suspended in 10 mL RPMI medium supplemented with 10% fetal bovine serum. The infected cells (100 μL) were plated in 96-well microtiter plates containing with the serial 5 fold dilution of compounds (100 μL) and cultured in CO2 incubator at 37° C.
(§4) {circle over (3)} The supernatant at 5 days postinfection was harvested and measured the amount of the virus by RT activity.
(§5) Preparation of the solution for RT assay:
(§6) A reaction mixture (90 μL) were contained 50 mM Tris-HCl, pH 8.3, 150 mM KCl, 10 mM MgCl2, 0.1% Nonidet P-40, 10 mM DTT (dithiothreitol), 5 μg/mL poly(rA), 5 μg/mL (dT)12-18 and 1 μCi [^3H] dTTP at final concentration after mixture of a sample (10 μL).
(§7) The procedure of RT assay:
(§8) 1. 10 μL of sample was plated to 3 wells of 96-well microtiter plate (triplicate assay).
(§9) 2. Reaction mixture (90 μL) chilled at 4° C. was added to each well, mixed and then incubate at 37° C. for 3 hrs.
(§10) 3. After incubation, the plate was chilled on ice, and passed through a DEAE-Filtermat using cell harvester. The filter was washed with 4.5% Na2HPO4 (20 see) and H2O (10 sec).
(§11) 4. The filter was dried at 95° C. for 15 min.
(§12) 5. 10 mL of scintilator was added and sealed.
(§13) 6. Radioactivity was measured by LKB Beta Plate scintillation spectroscopy.
(§14) 7. RT activity (cpm/mL) was calculated from average of three wells.

HIV-2 Rod = assay: as above; details: read-out: EC50 HIV-2 ROD
Experimental: as §1
{circle over (2)} Preparation of HIV-2 virus: HIV-2 Rod was infected to M8166 cells (1×10^6 cells). The cells were cultured in 10 mL RPMI medium supplemented with 10% fetal bovine serum in CO2 incubator at 37° C. After apparent giant cells were observed, the cells were removed by centrifugation and then the supernatant was filtrated by 0.45 μm filter, measured RT activity, and stored at −80° C. as HIV-2 stock virus.
as §3, §4, §5, §6, §7, §8, §9, §10, §11, §12, §13, §14

SIVagm SA212 = assay: as above; details: 120 h, RT activity of supernatant at 5 days postinfection
Experimental: as §1
{circle over (4)} Preparation of SIVagm virus: SW480 cells were cultured in DMEM medium supplemented with 10% fetal bovine serum using 25 cm^2 flask. SIVagm SA212 infectious molecular DNA (40 μg), pSA212, transfected to the cells by calcium phosphate coprecipitation methods, and the supernatant (2 mL) at 2-3 days post-transfection was infected to M8166 cells (1×10^6 cells). The cells were cultured in 10 mL RPMI medium supplemented with 10% fetal bovine serum in CO2 incubator at 37° C. Every 3 days, the cells were separated from the supernatant by centrifugation and continued culture with new culture medium. The each supernatant was filtrated by 0.45 μm filter, measured RT activity, and stored at −80° C. as SIVagm stock virus.
as §3, §4, §5, §6, §7, §8, §9, §10, §11, §12, §13, §14

HIV (HTLV-IIIB strain) = assay: MTT assay, MT-4 cells infected with HIV; details: Human immunodeficiency virus 1, MT4, 120 h, 5 days, inhibits 50% of cell damage caused by virus, read-out: EC50
Experimental: The inhibitory effects of each anti-human immunodeficiency virus active substance against human immunodeficiency virus have been determined by MTT assay described below.
(1) Human T cell strain Molt-4 clone 8 persistently infected HIV (HTLV-IIIB strain) was cultivated in RPMI-1640 medium supplemented with 10% fatal bovine serum, and supernatant was filtered, measured RT activity, and stored at −80° C. On the other hand, each human anti-immunodeficiency virus active substance was diluted to fixed concentration in culture medium, they were plated to 96-well microtiter plate. Subsequently, 100 μL (3.5×10^4 cells) of MT-4 cell suspension was plated to 96-well microtiter plate, and then above mentioned supernatant containing HIV, which was diluted by culture medium, was added 50 μL (60 pfu (plaque forming unit.)) to 96-well microtiter plate.
(2) After cultivation at 37° C. for 5 days in CO2 incubator, into all well was added 30 μL per well 3-(4,5-[…])-2,5-diphenyltetrazolium bromide (MTT) 5 mg/mL) and PBS, and then incubated for 1 h.
In this time, alive cells reduced MTT and formazan was precipitated, therefore, 150 μL of cell supernatants were removed from all wells, and then 150 μL of lysate (10% triton X-100 and 0.4% (v/v) HCl-containing isopropanol) was added, and formazan was eluated on a plate shaker.

HIV-1 NL432 = assay: Antiviral assay in infected Molt-4 cells, virus measured by RT activity; details: read-out: EC50 HIV-1 NL432
Experimental: as §1
as §2, with “(1)}” for “(3)}”, “HIV-1” for “SIVmac”, “HIV-1” for “SIVmac MA239”, “pNL432,” for “pMA239,”, “M8166” for “CEMX174”
as §3, §4, §5, §6, §7, §8, §9, §10, §11, §12, §13, §14

[1] = system: feline immunodeficiency virus (FIV TM-2 strain); assay: FIV antiviral assay in MYA-1 feline T cells, RT activity; details: T-cell, 240 h, FIV TM-2, MYA-1 cells, RT activity at 10 days postinfection
Experimental: (1) The serial 5 fold diluted samples were plated in 24 well microtiter plate. Feline T-cell lines (MYA-1 cells: 4×10^5 cells/well) and feline immunodeficiency virus (FIV TM-2 strain: 3000 cpm/well) were added to each well. The cells were cultured with 1.5 mL RPMI medium supplemented with 10% fetal bovine serum, 2 μg/mL polybrene, 100 unit/mL human recombinant IL-2 and 50 μM 2-mercaptoethanol in CO2 incubator at 37° C.
{circle over (1)} Preparation of FIV TM-2 virus: FIV TM-2 was infected to MYA-1 cells (1×10^6 cells). The cells were cultured in 10 mL RPMI medium supplemented with 10% fetal bovine serum, 2 μg/mL polybrene, 100 unit/ml human recombinant IL-2 and 50 μM 2-mercaptoethanol in CO2 incubator at 37° C. Every 1-2 days, the cells were separated from the supernatant by centrifugation and continued culture with new culture medium. Each of the supernatant was filtrated by 0.45 μm filter, measured RT activity, and stored at as −80° C. as FIV stock virus.
(2) Every 1-2 days, the supernatants were measured the amount of the virus by RT activity (as same as experimental example 2).

[2] = Human immunodeficiency virus 2, 120 h, Molt-4 cells, RT activity of supernatant at 5 days postinfection
[3] = Human immunodeficiency virus 1, 120 h, Molt-4 cells, RT activity of supernatant at 5 days postinfection

Nc1ccn(C2CSC(CO)O2)c(=O)n1 (single isomer, unassigned; (-)) [Lamivudine, (−)-2′,3+-dideoxy-3′-thiacytidine]
EC50 (SIVmac MA239): 9.1 ng/mL (≈ 0.0397 µM)
EC50 (HIV-2 Rod; [2]): 22 ng/mL (≈ 0.096 µM)
EC50 (SIVagm SA212): 22 ng/mL (≈ 0.096 µM)
EC50 (HIV (HTLV-IIIB strain)): 38 ng/mL
EC50 (HIV-1 NL432; [3]): 8.4 ng/mL (≈ 0.0366 µM)

O=C(C=C(O)c1nc[nH]n1)c1ccc(Cc2ccc(F)cc2)o1 [Compound I-16, 1-[5-(4-Fluorobenzyl)furan-2-yl]-3-hydroxy-3-(1H-1,2,4-triazol-3-yl)propenone]
EC50 (SIVmac MA239): 57 ng/mL (≈ 0.182 µM)
EC50 (HIV-2 Rod; [2]): 35 ng/mL (≈ 0.112 µM)
EC50 (SIVagm SA212): 44 ng/mL (≈ 0.14 µM)
EC50 (HIV-1 NL432; [3]): 57 ng/mL (≈ 0.182 µM)
EC50 [1]: 300 ng/mL (≈ 0.958 µM)

Cc1cn([C@H]2C=C[C@@H](CO)O2)c(=O)[nH]c1=O [Stavudine]
EC50 (SIVmac MA239): 3.4 ng/mL (≈ 0.0152 µM)
EC50 (HIV-2 Rod; Human immunodeficiency virus 2, MOLT-4, 120 h): 4.1 ng/mL (≈ 0.0183 µM)
EC50 (SIVagm SA212): 4.5 ng/mL (≈ 0.0201 µM)
EC50 (HIV (HTLV-IIIB strain)): 50 ng/mL
EC50 (HIV-1 NL432; Human immunodeficiency virus 1, MOLT-4, 120 h): 6.1 ng/mL (≈ 0.0272 µM)

Cc1cn(C2CC(N=[N+]=[N-])C(CO)O2)c(=O)[nH]c1=O (stereo not drawn) [Zidovudine, 3′-azido-3′-deoxycytimidine]
EC50 (SIVmac MA239): 0.35 ng/mL (≈ 0.00131 µM)
EC50 (HIV-2 Rod; [2]): 0.28 ng/mL (≈ 0.00105 µM)
EC50 (SIVagm SA212): 0.36 ng/mL (≈ 0.00135 µM)
EC50 (HIV (HTLV-IIIB strain)): 1.8 ng/mL
EC50 (HIV-1 NL432; [3]): 0.51 ng/mL (≈ 0.00191 µM)
EC50 [1]: 48 ng/mL (≈ 0.18 µM)

— patent US20030171406A1, “Medicinal compositions containing propenone derivatives” (priority 2000, published 2003)
